Laboratory results published in patent publication US9758485B2, “Compounds for controlling arthropods” (priority 2013, dated 2017).

Experiments:
[1] = test system: Boophilus microplus Parkhurst strain, SP-resistant; assay: Boophilus microplus - dip test; format: in vivo; conditions: application rate 100 ppm; dip of engorged adult female ticks; laying of fertile eggs, after 7 days
Experimental: Boophilus microplus—Dip Test
Test animals: cattle ticks (Boophilus microplus) Parkhurst strain, SP-resistant
(§1) Solvent: dimethyl sulphoxide
10 mg of active ingredient are dissolved in 0.5 ml of dimethyl sulphoxide. For the purpose of producing a suitable formulation, the active ingredient solution is diluted with water to the concentration desired in each case.
This active ingredient formulation is pipetted into tubes. 8-10 adult engorged female cattle ticks (Boophilus microplus) are transferred into a further tube with holes. The tube is immersed into the active ingredient formulation, and all the ticks are completely wetted. After the liquid has run out, the ticks are transferred on filter discs into plastic dishes and stored in a climate-controlled room.
Efficacy is assessed after 7 days by laying of fertile eggs. Eggs which are not visibly fertile are stored in a climate-controlled cabinet until the larvae hatch after about 42 days. An efficacy of 100% means that none of the ticks has laid any fertile eggs; 0% means that all the eggs are fertile.

Ctenocephalides felis [2] = assay: Ctenocephalides felis - oral test; format: in vivo; conditions: application rate 100 ppm in citrated cattle blood; adult fleas; kill after 2 days
Outline: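 Steps: active ingredient dissolved in dimethyl sulphoxide; blood dilution prepared; fleas (about 20, unfed adults) held in gauze-closed chamber beneath a cylinder of treated blood; feeding via parafilm; kill percentage determined after 2 days.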

[3] = logP determination by HPLC on a reversed-phase column (C18), EEC Directive 79/831 Annex V.A8; format: physicochemical; conditions: for logP^a): HPLC-MS method a), Table I-T3; for log P: HPLC-MS, reversed-phase column (C18); for logP: HPLC, reversed-phase C18, acetonitrile/water with formic acid, 55° C.
Lucilia cuprina = Lucilia cuprina test; format: in vivo; conditions: application rate 100 ppm; L1 larvae in minced horsemeat; kill after 2 days
Outline: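 Mortality (%) of first-instar blowfly larvae, about 20 per vessel, recorded 2 days after exposure to compound-treated minced horsemeat. Compound dissolved in dimethyl sulphoxide, then water-diluted to the desired concentration.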

Boophilus microplus = Boophilus microplus - injection test; format: in vivo; conditions: application rate 20 μg/animal; injected into engorged adult female ticks; laying of fertile eggs, after 7 days
Outline: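 Scoring was by fertile egg laying 7 days after injection, holding doubtful eggs until larvae hatched at about 42 days; 100% = no fertile eggs, 0% = all eggs fertile. Groups of 5 engorged adult female cattle ticks were each injected abdominally with 1 μl of compound in DMSO.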

Musca domestica = Musca domestica test; format: in vivo; conditions: application rate 100 ppm; adult houseflies; kill after 2 days
Experimental: as §1
To produce an appropriate active ingredient formulation, 10 mg of active ingredient are mixed with 0.5 ml of dimethyl sulphoxide, and the concentrate is diluted with water to the desired concentration.
Vessels containing a sponge treated with sugar solution and the active ingredient formulation of the desired concentration are populated with 10 adult houseflies (Musca domestica).
After 2 days, the kill in % is determined. 100% means that all of the flies have been killed; 0% means that none of the flies have been killed.

Ctenocephalides felis [4] = assay: Ctenocephalides felis - in vitro contact tests with adult cat fleas; format: in vivo; conditions: application rate 5 μg/cm^2 (=500 g/ha), after 48 h (dead or moribund)
Experimental: Ctenocephalides felis—In Vitro Contact Tests with Adult Cat Fleas
For the coating of the test tubes, 9 mg of active ingredient are first dissolved in 1 ml of acetone p.a. and then diluted to the desired concentration with acetone p.a. 250 μl of the solution are distributed homogeneously on the inner walls and base of a 25 ml test tube by turning and rocking on an orbital shaker (rocking rotation at 30 rpm for 2 h). With 900 ppm active ingredient solution and internal surface area 44.7 cm^2, given homogeneous distribution, an area-based dose of 5 μg/cm^2 is achieved.
After the solvent has evaporated off, the tubes are populated with 5-10 adult cat fleas (Ctenocephalides felis), sealed with a perforated plastic lid and incubated in a horizontal position at room temperature and ambient humidity. After 48 h, efficacy is determined. To this end, the test tubes are stood upright and the fleas are knocked to the base of the tube. Fleas which remain motionless at the base or move in an uncoordinated manner are considered to be dead or moribund.
100% efficacy means that all the fleas were dead or moribund. 0% efficacy means that no fleas were harmed.

logP [3]	SMILES	efficacy [1] [%]	efficacy (Ctenocephalides felis [2]) [%]	logP^a) [3]	efficacy (Lucilia cuprina) [%]	efficacy (Boophilus microplus) [%]	efficacy (Musca domestica) [%]	efficacy (Ctenocephalides felis [4]) [%]	log P [3]
	CCc1cc(C(F)(C(F)(F)F)C(F)(F)F)ccc1-n1cc(-c2ccc(Cl)c(C(=O)NC3CC3)c2)cn1 [I-T3-39]	100	100	4.6	100	100			
	N#CC1(NC(=O)c2cc(-c3cnn(-c4c(Cl)cc(OC(F)(F)F)cc4Cl)c3)ccc2Cl)CC1 [I-T3-87]		100	3.6	100	100	100	100	
	CN(C(=O)c1cc(-c2cnn(-c3c(Cl)cc(C(F)(F)F)cc3Cl)c2)cnc1Cl)C1CC1 [I-T3-99]	90	100		100	100	90	100	3.5
	CN(C(=O)c1cc(-c2cnn(-c3c(Cl)cc(C(F)(C(F)(F)F)C(F)(F)F)cc3C(F)(F)F)c2)cnc1Cl)C1CC1 [I-T3-113]	100	100		100	100	100	100	4.0
	Cc1cc(C(F)(C(F)(F)F)C(F)(F)F)cc(C)c1-n1cc(-c2cnc(C)c(C(=O)N(C)C3(C#N)CC3)c2)cn1 [I-T3-115]	100	100		100	100	100	100	3.8
	Cc1cc(C(F)(C(F)(F)F)C(F)(F)F)cc(C(F)(F)F)c1-n1cc(-c2cnc(C)c(C(=O)N(C)C3CC3)c2)cn1 [I-T3-118]	100	100		100	100	100	100	3.8
	Cc1cc(C(F)(C(F)(F)F)C(F)(F)F)cc(C)c1-n1cc(-c2cnc(C)c(C(=O)N(C)C3CC3)c2)cn1 [I-T3-120]	100	100		100	100	100	100	3.6
	Cc1ncc(-c2cnn(-c3c(Cl)cc(C(F)(C(F)(F)F)C(F)(F)F)cc3C(F)(F)F)c2)cc1C(=O)N(C)C1CC1 [I-T3-130]	100	100		100	100	100	100	3.8
	CNc1ncc(-c2cnn(-c3c(Cl)cc(C(F)(C(F)(F)F)C(F)(F)F)cc3Cl)c2)cc1C(=O)NC1CC1 [I-T3-136]		100		100	100	100	100	3.5
	O=C(NC1CC1)c1cc(-c2cnn(-c3c(Cl)cc(C(F)(C(F)(F)F)C(F)(F)F)cc3Cl)c2)cnc1NC1CC1 [I-T3-137]		100		80	100	100	100	3.4
	CCN(C(=O)c1cc(-c2cnn(-c3c(Cl)cc(C(F)(F)F)cc3Cl)c2)cnc1Cl)C1CC1 [I-T3-145]		100		100	100	90	100	3.8
5	Cc1cc(C(F)(C(F)(F)F)C(F)(F)F)cc(C)c1-c1cc(-c2ccc(Cl)c(C(=O)NCC(F)(F)F)c2)on1 [I-T22-3]		100		100	100	100	100	
4.8	N#CC1(NC(=O)c2cc(-c3cc(-c4c(Cl)cc(C(F)(C(F)(F)F)C(F)(F)F)cc4Cl)on3)ccc2Cl)CC1 [I-T23-2]		100		100	100	100	100	
